Assay results published in patent US20250188194A1, “Method of treatment” (Nucleus Therapeutics Pty Ltd, priority 2021, published 2025).
Entries after “also recorded” stand apart in the source; their conditions may differ.

System: differentiated PLB-985 cells
Test: Quantifying DNA released (adherent NET-DNA) after PMA stimulation by spectrophotometry
Type: cell-based, human
Settings: 1, 10 or 50 μM GSK484 one hour prior to PMA; N=2
Procedure: The results of the DAPI and SYTOX™ Green staining studies in FIG. 2C, 2D are consistent with DX1-mediated inhibition of chromatin decondensation and DNA release by differentiated PLB-985 cells. To further probe this effect, DNA-protein release was measured by differentiated PLB-985 cells after PMA stimulation by resuspending and quantifying DNA-protein complexes adherent to wells by spectrophotometry using a previously described protocol for isolation and quantification of NET-DNA in cell culture. This assay is based on the concept that intact cells for the most part remain in suspension, while DNA-protein complexes released in NETs are at least partially adhered to wells. This distinction allows for separation of intact cells from adherent NET-DNA by aspiration of the cell culture supernatants, followed by resuspension of adherent DNA-protein complexes and quantification by spectrophotometry.
Next, the ability of this assay to detect the effect of a known NETosis inhibitor on DNA release by differentiated PLB-985 cells stimulated by PMA was verified. […] Differentiated PLB-985 cells were treated with 0-50 μM of GSK484 for one hour prior to stimulation with PMA, followed by quantification of adherent DNA by spectrophotometry. […]

COc1cc(C(=O)N2CC[C@@H](O)[C@@H](N)C2)cc2nc(-c3cc4ccccc4n3CC3CC3)n(C)c12 [GSK484]
DNA release in response to PMA (adherent DNA by spectrophotometry): reduced extracellular DNA in a dose-dependent manner; also recorded: dose-dependent inhibition of DNA release
